Experimental data taken from US8623919B2, “Method of synthesizing S-allyl-cysteine analogues and their therapeutic application in treating myocardial infarction” (Fudan University, priority 2007, dated 2014).

Key:
myocardial cells [1] = assay: SOD activity (Hydroxylamine method) in hypoxia/reoxygenation injured myocardial cells; type: cell-based, Sprague-Dawley (SD) rat
Method: Myocardial cell samples were obtained from the same procedure of Example 1, the experiment groups were divided and hypoxia/reoxygenation experiments were performed on Control group, Vehicle group, SAC and analogue groups, same as the experiments in Example 1 with the same dosages and same conditions. Myocardial cells were obtained from each sample (10^6 myocardial cells/sample) from the Control group, Vehicle group, SAC and analogue groups. The cells were lysed under sterilized condition, and SOD (superoxide dismutase) activities in each sample of the cells were determined by Hydroxylamine method (a conventional method well known in the arts) using each microgram of protein per 1 milliliter reaction solution inhibits SOD activity to its 50% of original activity, in which the amount of SOD used in the reaction as standard of 1 unit of SOD activity.

myocardial cells [2] = assay: Lipid peroxidation (MDA, TBA) in hypoxia/reoxygenation injured myocardial cells; type: cell-based, Sprague-Dawley (SD) rat; conditions: 10^−5 mol/L
Method: Myocardial cell samples were obtained from the same procedure of Example 1, the experiment groups were divided and hypoxia/reoxygenation experiments were performed on Control group, Vehicle group, SAC and analogue groups, same as the experiments in Example 1 with the same dosages and same conditions. Myocardial cells were obtained from each sample (10^6 myocardial cells/sample) from the Control group, Vehicle group, SAC and analogue groups. The cells were lysed under sterilized condition, and lipid peroxidation experiments on the samples were performed. Since oxygen free radical attacks poly unsaturated fatty acid in biomembrane, inducing lipid peroxidation and producing MDA (malondialdehyde). MDA can react with thiobarbituric acid (TBA), forms red product, which can be detected in spectrophotometer at 532 nm. […] The inhibition effect could be reversed by PAG.

H9c2 cells [3] = assay: Mn-SOD activity of H9c2 cells injured by H2O2; type: cell-based; conditions: PAG group, PAG 10^−4 mol/L
Method: (§1) H9c2 cells were cultured same as Example 12, the cells were then divided into the groups same as Example 12.
(§2) The cells were lysed under sterilized condition, and lipid peroxidation experiments on the samples were performed. […] The effect of SPRC could be blocked by PAG, indicating SPRC mediates its effect on H9c2 cell by way of endogenous H2S.

H9c2 cells [4] = assay: MDA content of H9c2 cells injured by H2O2; type: cell-based; conditions: PAG group, PAG 10^−4 mol/L
Method: as §1, §2

H9c2 cells [5] = assay: H9c2 cell viability by MTT method after H2O2 injury; type: cell-based; conditions: PAG group, PAG 10^−4 mol/L
Method: (§3) H9c2 cells were cultured in DMEM with 10% of fetal bovine serum, 37 degree C. and 5% CO2 incubator. The monolayer culture was split at a 1:4 ratio or harvested to perform experiments when confluence was 70-80%. Adjust the density of the cells to […] and inoculate the cells on a 96 well plate.
Control group, no SAC analogues treatment, no H2O2 injured process.
(§4) H2O2 injury (Model) group, no SAC analogues treatment, under H2O2 200 μmol/L for 2 hours.
(§5) PAG group, PAG 10^−4/mol/L
(§6) SPRC dosage groups: SPRC 1E-7, SPRC 1E-6, SPRC 1E-5, the cell groups were treated with SPRC dosages of 10^−7 mol/L, 10^−6 mol/L, 10^−5 mol/L respectively.
(§7) SPRC dosage+PAG groups: the cell group was treated with SPRC dosages of 10^−5 mol/L and PAG 10^−4 mol/L.
H9c2 cell viability was assessed by MTT method. […] PAG is able to block the effect of SPRC.

H9c2 cells [6] = assay: LDH leakage of H9c2 cells injured by H2O2; type: cell-based; conditions: PAG group, PAG 10^−4 mol/L
Method: as §3, §4, §5, §6, §7
The cell samples (10^6 cells/sample) from each group were lysed under sterilized condition, and LDH contents in each samples were tested by pyruvic acid production method.

rats following MI injury [7] = assay: Infarct size after TTC staining in rats following MI injury; type: in vivo, SD rats; conditions: 50 mg/Kg/day intraperitoneal, 7 days before and 2 days after ligation, 48 h after surgery, saline 36.0±1.3%
Method: (§8) SPRC and SAC were dissolved in saline (vehicle). Male SD rats (weight 200-250 g) were randomly assigned to […] treatment groups: group (1) Sham group: Sham-treated with saline (n=4), (2) Sham+SPRC group: Sham-treated with SPRC (50 mg/Kg/day) (n=4), (3) Sham+SAC group: Sham-treated with SAC (50 mg/Kg/day) (n=4), (4) MI group: MI treated with saline (n=8), (5) MI+SPRC group: MI treated with SPRC (50 mg/Kg/day) (n=8), (6) MI+SAC group: MI treated with SAC (50 mg/Kg/day) (n=8). Rats were pre-treated for seven days with each SAC analogues respectively via an intraperitoneal injection once daily before they were used for MI model studies. […] Briefly, the rats were anesthetized with 7% choral hydrate (60 mg/kg intraperitoneal injection), endotracheally intubated and mechanically ventilated with room air, respiratory rate 100 breaths/min, tidal volume 2.5 ml with a rodent ventilator (DHX-150, China). ECG was recorded in the anaesthetized animal for a period of one minute using the Animal Mflab200 amplifier (Produced in China). A left thoracotomy was performed and the third intercostal space was exposed. […] Then incisions were sutured and the chests were closed. […] Forty eight hours after the surgery, ECG was recorded for each rat in each group. […] To evaluate the effect of SPRC and SAC on MI, infarct size were measured after TTC staining (FIG. 12).

rats following MI injury [8] = assay: Plasma H2S levels in rats (sham or MI); type: in vivo, SD rats; conditions: 50 mg/Kg/day intraperitoneal
Method: (§9) Animals were assigned and prepared the same as in Example 7, and dosages of SPRC and SAC were used the same in this example as in Example 7.
(§10) The plasma levels of H2S in each treatment group were determined since CSE mediates the endogenous production of H2S in mammals. Plasma H2S concentrations in MI group rats at 48 h after MI induction were 34.7±5.6 μM (n=8). […] Left ventricular CSE activity was analyzed in the tissue homogenates from each treatment group (n=6). CSE activity was 1.58±0.15 μmol/g protein/hr in left the ventricular tissues in MI group and 2.19±0.32 μmol/g protein/hr in the MI+SAC treated rats.

CSE [9] = assay: Western blot of CSE protein in left ventricle; type: in vivo, SD rats; conditions: MI rats, 50 mg/Kg/day, p<0.01
Text: as §9

rats following MI injury [10] = assay: Serum CK in rats (sham or MI); type: in vivo, SD rats; conditions: Sham rats; 50 mg/Kg/day intraperitoneal
Method: as §9
(§11) Serum CK levels were detected with diagnostic kit (NJBI, China) according to the instructions. LDH were determined calorimetrically with a spectrophotometer. Lipid peroxidation was measured in terms of MDA content using the thiobarbituric acid (TBA) assay. […] With regard to lipid peroxidation, the levels of MDA in MI groups increased at 48 h after myocardial infarction. […] (FIG. 14)

rats following MI injury [11] = assay: MDA content (TBA assay) in rats (sham or MI); type: in vivo, SD rats; conditions: Sham rats; 50 mg/Kg/day intraperitoneal
Method: as §9, §11

Bcl-2 mRNA = assay: RT-PCR of Bcl-2 mRNA in left ventricle; type: in vivo, SD rats; conditions: MI rats, 50 mg/Kg/day, p>0.05
Text: as §9
(§12) To further verify the effects of SPRC and SAC, the expressions of Bcl-2, Bax and CSE mRNA were accessed by RT-PCR (FIG. 17). An isoform of the CSE gene was detected (GenBank; access no. AY641456). The relative amounts of CSE mRNA in Left ventricular subjected to MI were increase 3.3-fold and 1.5-fold following SPRC and SAC exposure as compared to the MI group.

rats following MI injury [12] = assay: Serum LDH in rats (sham or MI); type: in vivo, SD rats; conditions: Sham rats; 50 mg/Kg/day intraperitoneal
Method: as §9, §11

Bax = assay: Western blot of Bax protein in left ventricle; type: in vivo, SD rats; conditions: MI rats, 50 mg/Kg/day, p<0.01
Text: as §9

rats following MI injury [13] = assay: ECG in rats following MI injury; type: in vivo, SD rats; conditions: 50 mg/Kg/day, day 10, 48 hr after the induction of MI
Method: as §8

CSE mRNA = assay: RT-PCR of CSE mRNA in left ventricle; type: in vivo, SD rats; conditions: MI rats, 50 mg/Kg/day
Text: as §9, §12

CSE [14] = target: T1, CSE (Rattus norvegicus, UniProt P18757); assay: Left ventricular CSE activity in tissue homogenates of rats; type: in vivo, SD rats; conditions: 50 mg/Kg/day; for CSE activity: left ventricle
T1 construct: from tissue; host or cells: rat left ventricle (homogenate), myocardial infarction model
Method: as §9, §10
SPRC administered rats had the highest CSE activity of 2.58±0.07 μmol/g protein/hr (p<0.01) (FIG. 15B). This observation correlated with the observed increases in H2S concentrations in the same treatment groups.

Bcl-2 = assay: Western blot of Bcl-2 protein in left ventricle; type: in vivo, SD rats; conditions: MI rats, 50 mg/Kg/day, p<0.01
Text: as §9

rats following MI injury [15] = assay: SOD activity in plasma of rats (sham or MI); type: in vivo, SD rats; conditions: 50 mg/Kg/day intraperitoneal
Method: as §9, §11

Bax mRNA = assay: RT-PCR of Bax mRNA in left ventricle; type: in vivo, SD rats; conditions: MI rats, 50 mg/Kg/day, p<0.05
Text: as §9, §12

T1 sequence (P18757 whole entry): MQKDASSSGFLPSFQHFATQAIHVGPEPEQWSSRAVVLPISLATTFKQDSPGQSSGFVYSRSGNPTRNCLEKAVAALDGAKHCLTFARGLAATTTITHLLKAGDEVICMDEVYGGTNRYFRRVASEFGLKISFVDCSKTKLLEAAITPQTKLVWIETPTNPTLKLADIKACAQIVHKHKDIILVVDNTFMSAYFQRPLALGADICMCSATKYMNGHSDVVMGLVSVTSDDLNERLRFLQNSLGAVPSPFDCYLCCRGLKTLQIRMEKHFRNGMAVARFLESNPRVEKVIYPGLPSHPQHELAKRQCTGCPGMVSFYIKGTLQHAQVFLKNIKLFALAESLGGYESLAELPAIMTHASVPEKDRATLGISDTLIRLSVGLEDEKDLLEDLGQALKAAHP

CCCCCSC[C@H](N)C(=O)O [SPEC, S-pentyl-L-cysteine]
Cu—Zn SOD activity in cytoplasm (myocardial cells [1]; 10^−5 mol/L): able to elevate
effect of PAG on elevating Cu—Zn SOD activity (myocardial cells [1]; with PAG): PAG also reversed the effect

CCCSC[C@H](N)C(=O)O [SPC, S-propyl-L-cysteine]
Cu—Zn SOD activity in cytoplasm (myocardial cells [1]; 10^−5 mol/L): able to elevate
effect of PAG on elevating Cu—Zn SOD activity (myocardial cells [1]; with PAG): PAG also reversed the effect
lipid peroxidation (MDA) (myocardial cells [2]): inhibited

CCSC[C@H](N)C(=O)O [SEC, S-ethyl-L-cysteine]
Mn-SOD activity in mitochondria (myocardial cells [1]; 10^−5 mol/L): able to elevate
effect of PAG on elevating Mn-SOD activity (myocardial cells [1]; with PAG): PAG also reversed
lipid peroxidation (MDA) (myocardial cells [2]): inhibited

C#CCC(N)C(=O)O (racemic) [PAG, DL-propargylglycine, reference compound]
Mn-SOD Activity (H9c2 cells [3]): 7.57 ± 0.83 U/mgprot
MDA Content (H9c2 cells [4]): 2.71 ± 0.26 nmol/mgprot
H9c2 Cell Survive (H9c2 cells [5]): 58.9 ± 1.2%
LDH Leakage (H9c2 cells [6]): 63.4 ± 1.2%

CCCCSC[C@H](N)C(=O)O [SBC, S-butyl-L-cysteine]
Cu—Zn SOD activity in cytoplasm (myocardial cells [1]; 10^−5 mol/L): able to elevate
effect of PAG on elevating Cu—Zn SOD activity (myocardial cells [1]; with PAG): PAG also reversed the effect

C=CCSC[C@H](N)C(=O)O [SAC, S-Allyl-Cysteine]
infarct size/total area of myocardium (rats following MI injury [7]): 24.9±1.9%
H2S concentration in plasma (rats following MI injury [8]; MI rats, 48 h after MI induction, 50 mg/kg/day): 61.1 ± 3.6 µM
H2S concentration in plasma (rats following MI injury [8]; Sham rats): 65.2 ± 4.4 µM
CSE protein expression (CSE [9]): up-regulated
CK (rats following MI injury [10]): 0.250 ± 0.019 U/ml
MDA (rats following MI injury [11]): 3.57 ± 0.31 nmol/mL
Bcl-2 gene expression (Bcl-2 mRNA): no significant differences
LDH (rats following MI injury [12]): 2599 ± 212 U/L
Bax protein levels (Bax): down-regulated
ST-segment elevation in ECG (rats following MI injury [13]): less elevated ST-segment
relative amounts of CSE mRNA, increase as compared to the MI group (CSE mRNA): 1.5 fold
CSE activity (CSE [14]; MI rats): 2.19 ± 0.32 μM/mgprot
Left ventricular CSE activity (CSE [14]; MI rats, left ventricular tissue homogenates, MI group 1.58±0.15): 2.19±0.32 μmol/g protein/hr
CSE activity (CSE [14]; Sham rats): 2.31 ± 0.24 μM/mgprot
Bcl-2 protein expression (Bcl-2): up-regulated
SOD (rats following MI injury [15]; MI rats, 48 h after MI): 107.1 ± 5.4 U/ml
SOD (rats following MI injury [15]; Sham rats): 159.8 ± 4.8 U/ml
Bax gene expression (Bax mRNA): down regulated
